From US11192877B2, “3-(5-hydroxy-1-oxoisoindolin-2-yl)piperidine-2,6-dione derivatives and uses thereof” (Novartis AG, priority 2018, dated 2021)

molecular target: IKZF2 (Helios) (Homo sapiens, UniProt Q96SW2+Q9UKS7); assay: Prolabel quantification of IKZF2 protein levels in 293GT cells; type: cell-based; conditions: 24 h, Pro-label assay, 293GT cells, 10 μM, read-out: IKZF2 % protein reduction at 10 μM, 24 h
Sequence (Q9UKS7 whole entry): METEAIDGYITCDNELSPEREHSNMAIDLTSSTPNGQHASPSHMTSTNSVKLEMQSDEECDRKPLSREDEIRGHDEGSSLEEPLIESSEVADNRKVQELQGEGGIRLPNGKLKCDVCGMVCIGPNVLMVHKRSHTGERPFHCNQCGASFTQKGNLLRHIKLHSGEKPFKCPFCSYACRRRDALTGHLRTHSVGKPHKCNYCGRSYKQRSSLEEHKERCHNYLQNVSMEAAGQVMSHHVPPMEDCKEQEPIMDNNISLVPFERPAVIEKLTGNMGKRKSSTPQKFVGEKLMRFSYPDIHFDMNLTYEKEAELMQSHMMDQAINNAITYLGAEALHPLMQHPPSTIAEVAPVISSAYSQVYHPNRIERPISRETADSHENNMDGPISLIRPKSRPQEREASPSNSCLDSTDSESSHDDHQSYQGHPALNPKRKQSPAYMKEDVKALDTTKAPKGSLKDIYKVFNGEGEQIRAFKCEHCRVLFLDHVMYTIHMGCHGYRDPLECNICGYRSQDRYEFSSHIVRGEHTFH
Sequence (Q96SW2 whole entry): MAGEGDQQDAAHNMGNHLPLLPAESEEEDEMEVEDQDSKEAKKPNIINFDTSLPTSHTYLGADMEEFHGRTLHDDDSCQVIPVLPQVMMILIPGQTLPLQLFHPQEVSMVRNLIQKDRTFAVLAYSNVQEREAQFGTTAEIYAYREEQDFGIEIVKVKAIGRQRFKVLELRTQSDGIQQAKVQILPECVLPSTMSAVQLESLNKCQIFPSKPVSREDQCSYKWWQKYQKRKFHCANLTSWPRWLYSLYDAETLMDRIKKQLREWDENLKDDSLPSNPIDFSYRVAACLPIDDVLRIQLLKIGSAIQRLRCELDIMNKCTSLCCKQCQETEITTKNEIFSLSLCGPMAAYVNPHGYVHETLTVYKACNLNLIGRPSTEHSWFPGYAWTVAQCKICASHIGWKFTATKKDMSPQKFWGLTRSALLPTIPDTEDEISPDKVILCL
Sequence (Q16531 whole entry partner): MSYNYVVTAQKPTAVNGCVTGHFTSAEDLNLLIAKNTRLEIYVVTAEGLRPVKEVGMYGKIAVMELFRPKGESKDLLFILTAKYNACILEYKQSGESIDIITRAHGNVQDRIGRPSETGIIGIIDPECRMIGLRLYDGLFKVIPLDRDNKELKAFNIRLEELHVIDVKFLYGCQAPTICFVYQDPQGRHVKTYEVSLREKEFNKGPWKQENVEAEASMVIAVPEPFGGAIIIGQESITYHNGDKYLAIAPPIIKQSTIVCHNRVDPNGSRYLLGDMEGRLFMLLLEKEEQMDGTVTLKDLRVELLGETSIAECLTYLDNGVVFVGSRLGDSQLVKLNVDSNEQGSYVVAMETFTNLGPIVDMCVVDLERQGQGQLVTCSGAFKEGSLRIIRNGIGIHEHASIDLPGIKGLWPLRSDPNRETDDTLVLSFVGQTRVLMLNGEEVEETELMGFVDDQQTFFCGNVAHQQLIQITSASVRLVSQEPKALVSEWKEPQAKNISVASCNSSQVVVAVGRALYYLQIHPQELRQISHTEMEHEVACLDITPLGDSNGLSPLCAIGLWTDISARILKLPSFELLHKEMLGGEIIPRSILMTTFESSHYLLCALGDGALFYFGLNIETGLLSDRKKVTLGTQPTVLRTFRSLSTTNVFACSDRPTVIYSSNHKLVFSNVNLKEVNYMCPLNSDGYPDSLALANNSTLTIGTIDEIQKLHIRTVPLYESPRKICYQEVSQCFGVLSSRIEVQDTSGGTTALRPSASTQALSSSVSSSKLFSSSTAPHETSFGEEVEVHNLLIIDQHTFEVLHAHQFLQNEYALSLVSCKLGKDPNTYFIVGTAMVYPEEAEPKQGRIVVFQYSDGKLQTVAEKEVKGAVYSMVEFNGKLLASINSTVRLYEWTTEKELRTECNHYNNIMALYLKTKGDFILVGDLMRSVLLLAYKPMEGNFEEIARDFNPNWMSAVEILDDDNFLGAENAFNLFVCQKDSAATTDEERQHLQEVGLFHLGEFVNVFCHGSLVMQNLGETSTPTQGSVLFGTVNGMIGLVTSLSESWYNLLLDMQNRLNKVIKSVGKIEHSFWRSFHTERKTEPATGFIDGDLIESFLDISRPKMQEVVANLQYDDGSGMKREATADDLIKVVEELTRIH

Q: For `CO[C@H]1CC[C@@H](CN[C@H]2CCC[C@@H]2Oc2ccc3c(c2)CN(C2CCC(=O)NC2=O)C3=O)CC1` (stereo partly drawn) [I-191, 3-(5-(((1S,2S)-2-((((1s,4R)-4-methoxycyclohexyl)methyl)amino)cyclopentyl)oxy)-1-oxoisoindolin-2-yl)piperidine-2,6-dione], which IKZF2 % protein reduction at 10 µM is on record?
A: The IKZF2 % protein reduction at 10 µM was 83%.

Q: With `O=C1CCC(N2Cc3cc(O[C@H]4CCC[C@@H]4NCC4CC(F)(F)C4)ccc3C2=O)C(=O)N1` (stereo partly drawn) [I-194, 3-(5-(((1S,2S)-2-(((3,3-difluorocyclobutyl)methyl)amino)cyclopentyl)oxy)-1-oxoisoindolin-2-yl)piperidine-2,6-dione] as the compound, how does the IKZF2 % protein reduction at 10 µM read?
A: The IKZF2 % protein reduction at 10 µM was 83%.

Q: `O=C1CCC(N2Cc3cc(O[C@H]4CCC[C@@H]4N4Cc5ccncc5C4)ccc3C2=O)C(=O)N1` (stereo partly drawn) [I-196, 3-(5-(((1S,2S)-2-(1,3-dihydro-2H-pyrrolo[3,4-c]pyridin-2-yl)cyclopentyl)oxy)-1-oxoisoindolin-2-yl)piperidine-2,6-dione] was tested. Which IKZF2 % protein reduction at 10 µM did it give?
A: The IKZF2 % protein reduction at 10 µM was 68%.

Q: `CCN(C)[C@H]1c2ccccc2C[C@@H]1Oc1ccc2c(c1)CN(C1CCC(=O)NC1=O)C2=O` (stereo partly drawn) [I-200, 3-(5-(((1S,2S)-1-(ethyl(methyl)amino)-2,3-dihydro-1H-inden-2-yl)oxy)-1-oxoisoindolin-2-yl)piperidine-2,6-dione] was tested. Which IKZF2 % protein reduction at 10 µM did it give?
A: The IKZF2 % protein reduction at 10 µM was 71%.

Q: How did the IKZF2 % protein reduction at 10 µM turn out when `CN(C)[C@H]1c2ccccc2C[C@@H]1Oc1ccc2c(c1)CN(C1CCC(=O)NC1=O)C2=O` (stereo partly drawn) [I-201, 3-(5-(((1S,2S)-1-(dimethylamino)-2,3-dihydro-1H-inden-2-yl)oxy)-1-oxoisoindolin-2-yl)piperidine-2,6-dione] was run?
A: Its IKZF2 % protein reduction at 10 µM is 46%.

Q: `N[C@H]1CCC[C@@H]1Oc1ccc2c(c1F)CN(C1CCC(=O)NC1=O)C2=O` (stereo partly drawn) [I-213, 3-(5-(((1S,2S)-2-aminocyclopentyl)oxy)-4-fluoro-1-oxoisoindolin-2-yl)piperidine-2,6-dione] was tested. Which IKZF2 % protein reduction at 10 µM did it give?
A: Its IKZF2 % protein reduction at 10 µM is 20%.

Q: For `CCN(CC)[C@H]1CCC[C@@H]1Oc1ccc2c(c1F)CN(C1CCC(=O)NC1=O)C2=O` (stereo partly drawn) [I-214, 3-(5-(((1S,2S)-2-(diethylamino)cyclopentyl)oxy)-4-fluoro-1-oxoisoindolin-2-yl)piperidine-2,6-dione], which IKZF2 % protein reduction at 10 µM is on record?
A: The IKZF2 % protein reduction at 10 µM was 40%.

Q: `N[C@H]1CCC[C@@H]1Oc1cc2c(cc1F)C(=O)N(C1CCC(=O)NC1=O)C2` (stereo partly drawn) [I-215, 3-(5-(((1S,2S)-2-aminocyclopentyl)oxy)-6-fluoro-1-oxoisoindolin-2-yl)piperidine-2,6-dione] was tested. Which IKZF2 % protein reduction at 10 µM did it give?
A: Its IKZF2 % protein reduction at 10 µM is 30%.

Q: How did the IKZF2 % protein reduction at 10 µM turn out when `CCN(CC)[C@H]1CCC[C@@H]1Oc1cc2c(cc1F)C(=O)N(C1CCC(=O)NC1=O)C2` (stereo partly drawn) [I-216, 3-(5-(((1S,2S)-2-(diethylamino)cyclopentyl)oxy)-6-fluoro-1-oxoisoindolin-2-yl)piperidine-2,6-dione] was run?
A: Its IKZF2 % protein reduction at 10 µM is 60%.

same assay, conditions: 24 h, read-out: IKZF2 % protein reduction at 10 μM, 24 h

Q: For `O=C1CCC(N2Cc3cc(O[C@H]4CCC[C@@H]4N4CCC(OC(F)F)CC4)ccc3C2=O)C(=O)N1` (stereo partly drawn) [I-195, 3-(5-(((1S,2S)-2-(4-(difluoromethoxy)piperidin-1-yl)cyclopentyl)oxy)-1-oxoisoindolin-2-yl)piperidine-2,6-dione], which IKZF2 % protein reduction at 10 µM is on record?
A: Its IKZF2 % protein reduction at 10 µM is 85%.

Q: How did the IKZF2 % protein reduction at 10 µM turn out when `N[C@H]1c2ccccc2C[C@@H]1Oc1ccc2c(c1)CN(C1CCC(=O)NC1=O)C2=O` (stereo partly drawn) [I-197, 3-(5-(((1S,2S)-1-amino-2,3-dihydro-1H-inden-2-yl)oxy)-1-oxoisoindolin-2-yl)piperidine-2,6-dione] was run?
A: The IKZF2 % protein reduction at 10 µM was 68%.

Q: Which IKZF2 % protein reduction at 10 µM does the source give for `CCN[C@H]1c2ccccc2C[C@@H]1Oc1ccc2c(c1)CN(C1CCC(=O)NC1=O)C2=O` (stereo partly drawn) [I-198, 3-(5-(((1S,2S)-1-(ethylamino)-2,3-dihydro-1H-inden-2-yl)oxy)-1-oxoisoindolin-2-yl)piperidine-2,6-dione] here?
A: The IKZF2 % protein reduction at 10 µM was 67%.

Q: For `CCN(CC)[C@H]1c2ccccc2C[C@@H]1Oc1ccc2c(c1)CN(C1CCC(=O)NC1=O)C2=O` (stereo partly drawn) [I-199, 3-(5-(((1S,2S)-1-(diethylamino)-2,3-dihydro-1H-inden-2-yl)oxy)-1-oxoisoindolin-2-yl)piperidine-2,6-dione], which IKZF2 % protein reduction at 10 µM is on record?
A: Its IKZF2 % protein reduction at 10 µM is 71%.
